Data set [1] is described as follows: Cytotoxicity against human CEM-SS cells assessed as reduction in cell viability incubated for 5 days by MTT assay. Format: cell-based. As to conditions: time 5 day. (Tetrazolium assays rely on reduction of a dye to a coloured formazan, in cell work by metabolically active cells.)
The nature of data set [2]: Selectivity index, ratio of CC50 for human MT4 cells to EC50 for antiviral activity against HIV-1 infected in human MT4 cells. It is filed as toxicity, cell-based. As to conditions: read-out: Ratio CC50/EC50.
Data set [3] has as its system Human immunodeficiency virus 1. As to the kind of experiment: Antiviral activity against HIV-1 infected in human MT4 cells assessed as reduction in virus-indued cytopathogenicity incubated for 5 days by MTT assay. It is filed as functional, organism-based. As to conditions: Human immunodeficiency virus 1, MT4, 120 h. In general terms: Cytopathic effects are the visible damage that an infection or toxin causes in cultured cells.

Data set [4] concerns Human immunodeficiency virus 1. The experiment in a line: Antiviral activity against HIV-1 infected in human CEM-SS cells assessed as reduction in viral multiplication by measuring decrease in reverse transcriptase activity incubated for 5 days. The conditions noted are these: Human immunodeficiency virus 1, CEM-SS, 120 h. Format: functional, organism-based.
Data set [5] can be described thus: Selectivity index, ratio of CC50 for human CEM-SS cells to EC50 for antiviral activity against HIV-1 infected in human CEM-SS cells. It is filed as toxicity, cell-based. As to conditions: read-out: Ratio CC50/EC50.
A short description of data set [6]: Cytotoxicity against human MT4 cells assessed as reduction in cell viability incubated for 5 days by MTT assay. It is filed as cell-based. The conditions noted are these: time 5 day.
A short description of data set [7]: Selectivity index, ratio of CC50 for human CEM-SS cells to EC50 for antiviral activity against HIV-1 infected in human CEM-SS cells in presence of AZT. It is filed as toxicity, cell-based. As to conditions: read-out: Ratio CC50/EC50.
For data set [8], the system named is Human immunodeficiency virus 1. The experiment in a line: Antiviral activity against HIV-1 infected in human CEM-SS cells assessed as reduction in viral multiplication by measuring decrease in reverse transcriptase activity incubated for 5 days in presence of ddA. It is filed as functional, organism-based. As to conditions: Human immunodeficiency virus 1, CEM-SS, 120 h.

The test system of data set [9] is Human immunodeficiency virus 1. As to the kind of experiment: Antiviral activity against HIV-1 infected in human MT4 cells assessed as reduction in virus-indued cytopathogenicity incubated for 5 days in presence of ddA by MTT assay. It is filed as functional, organism-based. The conditions noted are these: Human immunodeficiency virus 1, MT4, 120 h.
Data set [10] is described as follows: Cytotoxicity against human CEM-TK(-) cells assessed as reduction in cell viability incubated for 5 days in presence of AZT by MTT assay. The conditions noted are these: time 5 day. Format: cell-based.
The nature of data set [11]: Selectivity index, ratio of CC50 for human CEM-TK(-) cells to EC50 for antiviral activity against HIV-1 infected in human CEM-TK(-) cells. It is filed as toxicity, cell-based. As to conditions: read-out: Ratio CC50/EC50.
Data set [12] is described as follows: Selectivity index, ratio of CC50 for human MT4 cells to EC50 for antiviral activity against HIV-1 infected in human MT4 cells in presence of ddA. As to conditions: read-out: Ratio CC50/EC50. Format: toxicity, cell-based.
Data set [13] can be described thus: Selectivity index, ratio of CC50 for human CEM-SS cells to EC50 for antiviral activity against HIV-1 infected in human CEM-SS cells in presence of ddA. It is filed as toxicity, cell-based. The conditions noted are these: read-out: Ratio CC50/EC50.
Data set [14] relates to Human immunodeficiency virus 1. As to the kind of experiment: Antiviral activity against HIV-1 infected in human MT4 cells assessed as reduction in virus-indued cytopathogenicity incubated for 5 days in presence of AZT by MTT assay. The conditions noted are these: Human immunodeficiency virus 1, MT4, 120 h. It is filed as functional, organism-based.
The subject of data set [15] is Human immunodeficiency virus 1. As to the kind of experiment: Antiviral activity against HIV-1 infected in human CEM-TK(-) cells assessed as reduction in viral multiplication by measuring decrease in reverse transcriptase activity incubated for 6 days. It is filed as functional, organism-based. The conditions noted are these: Human immunodeficiency virus 1, CEM-TK(-), 144 h.

The nature of data set [16]: Cytotoxicity against human CEM-SS cells assessed as reduction in cell viability incubated for 5 days in presence of ddA by MTT assay. Format: cell-based. The conditions noted are these: time 5 day.
The nature of data set [17]: Cytotoxicity against human CEM-SS cells assessed as reduction in cell viability incubated for 5 days in presence of AZT by MTT assay. It is filed as cell-based. The conditions noted are these: time 5 day.
For data set [18], the system named is Human immunodeficiency virus 1. As to the kind of experiment: Antiviral activity against HIV-1 infected in human CEM-SS cells assessed as reduction in viral multiplication by measuring decrease in reverse transcriptase activity incubated for 5 days in presence of AZT. It is filed as functional, organism-based. As to conditions: Human immunodeficiency virus 1, CEM-SS, 120 h.

Data set [19] in a line: Selectivity index, ratio of CC50 for human CEM-TK(-) cells to EC50 for antiviral activity against HIV-1 infected in human CEM-TK(-) cells in presence of AZT. As to conditions: read-out: Ratio CC50/EC50. It is filed as toxicity, cell-based.
The nature of data set [20]: Cytotoxicity against human CEM-TK(-) cells assessed as reduction in cell viability incubated for 5 days by MTT assay. Format: cell-based. As to conditions: time 5 day.
Data set [21] is described as follows: Cytotoxicity against human MT4 cells assessed as reduction in cell viability incubated for 5 days in presence of AZT by MTT assay. Format: cell-based. As to conditions: time 5 day.
Data set [22] is described as follows: Cytotoxicity against human MT4 cells assessed as reduction in cell viability incubated for 5 days in presence of ddA by MTT assay. Format: cell-based. The conditions noted are these: time 5 day.
Data set [23] is described as follows: Selectivity index, ratio of CC50 for human MT4 cells to EC50 for antiviral activity against HIV-1 infected in human MT4 cells in presence of AZT. It is filed as toxicity, cell-based. As to conditions: read-out: Ratio CC50/EC50.
For data set [24], the system named is Human immunodeficiency virus 1. The experiment in a line: Antiviral activity against HIV-1 infected in human CEM-TK(-) cells assessed as reduction in viral multiplication by measuring decrease in reverse transcriptase activity incubated for 6 days in presence of AZT. It is filed as functional, organism-based. As to conditions: Human immunodeficiency virus 1, CEM-TK(-), 144 h.

Results on three compounds are retold here after ChEMBL document CHEMBL4813984, “An original pronucleotide strategy for the simultaneous delivery of two bioactive drugs” (Eur J Med Chem, 2021).

Each structure is given as a SMILES string. Some results are limits rather than exact numbers.

By CC50 is commonly meant the concentration at which the toxic effect on the cells reaches its halfway point. What is called EC50 is the concentration at which the effect is half-maximal. In the case of `Nc1ncnc2c1ncn2[C@H]1CC[C@@H](CO)O1`, the CC50 at 120 h in [1] and in data set [6] was more than 110 µM throughout. For the same compound, the values for the selectivity ratio in [2] and in [5] were more than 12 and more than 55, respectively. For the same compound, the EC50 is 9 µM in [3] and 2 µM in data set [4].
In the case of `Nc1ccn([C@H]2CC[C@@H](CO)O2)c(=O)n1` [ZALCITABINE], the selectivity ratio in [7] is 2880; in [11] it was 467; in [12], more than 83; in [13], 4600; in data set [2], 90; in data set [19] it was 922. For the same compound, the selectivity ratio is 239 in [5] and 15700 in data set [23]. Moreover, the CC50 at 120 h in [1] was determined as 16 µM; in data set [10] it was 8.3 µM; in data set [16], 46 µM; in [17], 46 µM; in [20], 7 µM; in [21], 130 µM. Besides, the CC50 at 120 h in data set [22] is more than 100 µM; in [6], 180 µM. For the same compound, the EC50 in [8] was 0.01 µM; in [9], 1.2 µM; in [14], 0.083 µM; in [15], 0.015 µM; in [3], 2 µM; in data set [18], 0.016 µM. In addition, the values for the half-maximal effective concentration (EC50) in data set [4] and in data set [24] were 0.067 µM and 0.009 µM, respectively.
Regarding `Cc1cn([C@H]2C[C@H](N=[N+]=[N-])[C@@H](CO)O2)c(=O)[nH]c1=O` [ZIDOVUDINE], the CC50 at 120 h is more than 1000 µM in data set [1], more than 1000 µM in [20] and 140 µM in data set [6]. The values for the selectivity ratio in [2] and in data set [5] were 8240 and more than 40000, respectively. The concentration giving a half-maximal response (EC50) is more than 100 µM in [15] and 0.024 µM in data set [4].
